In patent publication US6498154B1, “Cyclic regimens using quinazolinone and benzoxazine derivatives” (Wyeth, priority 1999, dated 2002):
Where “and” joins values, the source holds several entries; their conditions need not be identical. Identical values can stand only once.

Tested on: T47D cells
Test: T47D cell proliferation assay (BrdU incorporation)
Assay type: cell-based
Conditions: half-maximal decrease in trimegestone induced BrdU incorporation, read-out: Estimated IC50
Description: 3. T47D Cell Proliferation Assay
The objective of this assay is the determination of progestational and antiprogestational potency by using a cell proliferation assay in T47D cells. A compound's effect on DNA synthesis in T47D cells is measured.
DMEM:F12 (1:1) (GIBCO, BRL) supplemented with 10% (v/v) fetal bovine serum (not heat-inactivated), 10 U/ml penicillin, […] streptornycin, and 2 mM GlutaMax (GIBCO, BRL).
Minimum Essential Medium (MEM) (#51200-038GIBCO, BRL) phenol red-free supplemented with 0.5% charcoal stripped fetal bovine serum, 100 U/ml penicillin, […] streptornycin, and 2 mM GlutaMax (GIBCO, BRL).
Stock T47 D cells are maintained in growth medium. For BrdU incorporation assay, cells are plated in 96-well plates (Falcon, Becton Dickinson Labware) at 10,000 cells/well in growth medium. […]
At the end of BrdU labeling, the medium is removed and BrdU incorporation is measured using a cell proliferation ELISA kit (#RPN 250, Amersham Life Science) according to manufacturer's instructions. […] Then 25 μl of 1 M sulfuric acid is added to each well to stop color reaction and optical density is read in a plate reader at 450 nm within 5 min.
Square root-transformed data are used for analysis of variance and nonlinear dose response curve fitting for both agonist and antagonist modes. […] EC50 or IC50 values are calculated from the retransformed values. […]

**Q.** For `CC#C[C@]1(O)CC[C@H]2[C@@H]3CCC4=CC(=O)CCC4=C3[C@@H](c3ccc(N(C)C)cc3)C[C@@]21C` [RU486], which IC50 is on record?
**A.** Its IC50 is 0.016 nM and 0.018 nM.

Same assay, conditions: half-maximal increase in BrdU incorporation, individual studies, read-out: Estimated EC50

**Q.** Which EC50 does the source give for `C[C@H](O)C(=O)[C@@]1(C)CC[C@H]2[C@@H]3CCC4=CC(=O)CCC4=C3CC[C@@]21C` [Trimegestone, trimegestone] here?
**A.** The EC50 was 0.017 nM and 0.014 nM and 0.019 nM.

Tested on: rat uterine decidualization
Test: Rat decidualization assay
Assay type: in vivo
Conditions: average of dose-response curves, rat decidualization, s.c.
Description: 1. Rat decidualization assay
b. Animals (RACUC protocol #5002)
The animals are treated once daily for seven days.
Uteri are removed and trimmed of fat.
Body weight: Mean total animal body weight (default-kg)
Decidual response: [(D-C)/C]×100%

**Q.** Which “Estimated average EC50” value does the source give for `C#C[C@]1(O)CC[C@H]2[C@@H]3CCC4=CC(=O)CC[C@@H]4[C@H]3C(=C)C[C@@]21CC` [3-Ketodesogestrel, 3-ketodesogestrel] here?
**A.** Its value is 0.10 mg/kg, s.c.

**Q.** Which “Estimated average EC50” value does the source give for `C#C[C@]1(O)CC[C@H]2[C@@H]3CCC4=CC(=O)CC[C@@H]4[C@H]3CC[C@@]21CC` [Levonorgestrel, levonorgestrel] here?
**A.** Its value is 0.10 mg/kg, s.c.

Same assay, conditions: decrease in EC50 progesterone (5.6 mg/kg) induced decidual response, rat, s.c.

**Q.** With `CC#C[C@]1(O)CC[C@H]2[C@@H]3CCC4=CC(=O)CCC4=C3[C@@H](c3ccc(N(C)C)cc3)C[C@@]21C` [RU486] as the molecule, how does the “Estimated IC50” value read?
**A.** The value was 0.21 mg/kg, s.c. and 0.14 mg/kg, s.c.

Same assay, conditions: ovariectomized female Sprague-Dawley rats, once daily for seven days, s.c.; individual studies

**Q.** For `C#C[C@]1(O)CC[C@H]2[C@@H]3CCC4=CC(=O)CC[C@@H]4[C@H]3C(=C)C[C@@]21CC` [3-Ketodesogestrel, 3-ketodesogestrel], which “Estimated EC50 for uterine wet weight” value is on record?
**A.** The value was 0.10 mg/kg, s.c. and 0.06 mg/kg, s.c. and 0.11 mg/kg, s.c.

**Q.** Which “Estimated EC50 for uterine wet weight” value does the source give for `CC(=O)O[C@]1(C(C)=O)CC[C@H]2[C@@H]3C[C@H](C)C4=CC(=O)CC[C@]4(C)[C@H]3CC[C@@]21C` [MPA, medroxyprogesterone acetate] here?
**A.** The value was 0.42 mg/kg, s.c. and 0.39 mg/kg, s.c. (2×).

**Q.** Which “Estimated EC50 for uterine wet weight” value does the source give for `C#C[C@]1(O)CC[C@H]2[C@@H]3CCC4=CC(=O)CC[C@@H]4[C@H]3CC[C@@]21CC` [Levonorgestrel, levonorgestrel] here?
**A.** The value was 0.08 mg/kg, s.c. and 0.12 mg/kg, s.c. and 0.09 mg/kg, s.c. (2×).

**Q.** For `CC(=O)[C@H]1CC[C@H]2[C@@H]3CCC4=CC(=O)CC[C@]4(C)[C@H]3CC[C@]12C` [Progesterone, progesterone], which “Estimated EC50 for uterine wet weight” value is on record?
**A.** The value was 5.50 mg/kg, s.c.

Tested on: not given
Test: not given
Conditions: not given

**Q.** For `CC1(C)CC(=O)Nc2ccc(-c3cccc(Cl)c3)cc21` [6-(3-Chlorophenyl)-4,4-dimethyl-3,4-dihydro-1H-quinolin-2-one], which melting point is on record?
**A.** The melting point was 211 to 215 °C.

**Q.** Which melting point does the source give for `CC1Nc2ccc(-c3ccc(F)c(C#N)c3)cc2C(C)(C)O1` (stereo not shown) [Example 30, 2-Fluoro-5-(2,4,4-trimethyl-1,4-dihydro-2H-3,1-benzoxazin-6-yl)benzonitrile] here?
**A.** Its melting point is 184 to 186 °C.

**Q.** For `Cc1cc(C#N)sc1-c1ccc2c(c1)C(C)(C)OC(C)N2` (stereo not shown) [Example 16, 4-Methyl-5(2,4,4-trimethyl-1,4-dihydro-2H-3,1-benzoxazin-6-yl)thiophene-2-carbonitrile], which melting point is on record?
**A.** Its melting point is 145 to 146 °C.

**Q.** Which melting point does the source give for `CC1Nc2ccc(-c3csc(C#N)c3)cc2C2(CCCCC2)O1` (stereo not shown) [Example 26, 4-(2-Methylspiro[2H-3,1-benzoxazine-4,1′-cyclohexane]-6-yl)2-thiophenecarbonitrile] here?
**A.** The melting point was 111 to 112 °C.

**Q.** For `CC1(C)CC(=O)Nc2ccc(-c3cccc(F)c3)cc21` [Example 40, 6(3-Fluorophenyl)-4,4-dimethyl-3,4-dihydroquinolin-2(1H)-one], which melting point is on record?
**A.** Its melting point is 190 to 192 °C.

**Q.** For `CC1Nc2ccc(-c3cc(F)cc(C#N)c3)cc2C(C)(C)O1` (stereo not shown) [Example 14, 3-Fluoro-5-(2,4,4-trimethyl-1,4-dihydro-2H-3,1-benzoxazin-6-yl)benzonitrile], which melting point is on record?
**A.** The melting point was 163 to 164 °C.

**Q.** With `CN1C(=O)Nc2ccc(-c3cccc(Cl)c3)cc2C1(C)C1CC1` (stereo not shown) [drawing 34, R = Me, 6-(3-Chlorophenyl)-4-cyclopropyl-3,4-dimethyl3,4dihydro-1H-guinazolin-2-one] as the molecule, how does the melting point read?
**A.** Its melting point is 193 to 194 °C.

**Q.** With `CC1Nc2ccc(-c3ccc(F)c(Cl)c3)cc2C(C)(C)O1` (stereo not shown) [Example 29, 6(3-Chloro-4-fluorophenyl)-2,4,4-trimethyl-1,4dihydro-2H-3,1-benzoxazine] as the molecule, how does the melting point read?
**A.** Its melting point is 173 to 175 °C.

**Q.** For `CC1(C)CC(=S)Nc2ccc(-c3cccc(F)c3)cc21` [Example 44, 6-(3-Fluorophenyl)-4,4-dimethyl-3,4-dihydroquinoline-2(1H)-thione], which melting point is on record?
**A.** The melting point was 209 to 211 °C.

**Q.** Which melting point does the source give for `CC1(C)OC(C(F)(F)F)Nc2ccc(-c3cc(F)cc(C#N)c3)cc21` (stereo not shown) [Example 32, 3-[4,4-Dimethyl-2-(trifluoromethyl)-1,4-dihydro-2H-3,1-benzoxazin-6-yl]-5-fluorobenzonitrile] here?
**A.** The melting point was 102 to 103 °C.

**Q.** For `CC1(C2CC2)NC(=O)Nc2ccc(-c3cccc(Cl)c3)cc21` (stereo not shown) [drawing 34, R = H, 6-(3-Chlorophenyl)-4-cyclopropyl-4-methyl-3,4-dihydro-1H-quinazolin-2-one], which melting point is on record?
**A.** Its melting point is 125 to 127 °C.

**Q.** For `CC1Nc2ccc(-c3cccc(Cl)c3)cc2C(C)(C)O1` (stereo not shown) [Example 28, 6-(3-Chlorophenyl)-2,4,4-trimethyl-1,4-dihydro-2H-3,1-benzoxazine], which melting point is on record?
**A.** The melting point was 144 to 146 °C.

**Q.** For `CC1Nc2ccc(-c3ccc(C#N)s3)cc2C(C)(C)O1` (stereo not shown) [Example 13, 5-(2,4,4-Trimethyl-1,4-dihydro-2H-3,1-benzoxazin-6-yl)thiophene-2-carbonitrile], which melting point is on record?
**A.** Its melting point is 172 to 173 °C.

**Q.** Which melting point does the source give for `CC1Nc2ccc(-c3ccc(C#N)[nH]3)cc2C(C)(C)O1` (stereo not shown) [Example 20, 5-(2,4,4-Trimethyl-1,4-dihydro-2H-3,1-benzoxazin-6-yl)1H-pyrrole-2-carbonitrile] here?
**A.** The melting point was 201 to 202 °C.

**Q.** For `CC1(C)CC(=O)Nc2ccc(-c3cccc(C#N)c3)cc21` [Example 42, 3-(4,4-Dimethyl-2-oxo-1,2,3,4-tetrahydroquinolin-6-yl)benzonitrile], which melting point is on record?
**A.** Its melting point is 190 to 192 °C.

**Q.** Which melting point does the source give for `CC1(C)OC(C(F)(F)F)Nc2ccc(-c3cccc(Cl)c3)cc21` (stereo not shown) [Example 39, 6-(3-Chlorophenyl)-4,4-dimethyl-2-(trifluoromethyl)-1,4-dihydro-2H-3,1-benzoxazine] here?
**A.** Its melting point is 108 to 109 °C.

**Q.** With `CC1(C)CC(=S)Nc2ccc(-c3cc(F)cc(C#N)c3)cc21` [Example 46, 3-(4,4-Dimethyl-2-thioxo-1,2,3,4-tetrahydroquinolin-6-yl)5-fluorobenzonitrile] as the molecule, how does the melting point read?
**A.** Its melting point is 240 to 242 °C (dec.).

**Q.** For `CC1OC(C)(C)c2cc(-c3ccc(C#N)n3C(=O)OC(C)(C)C)ccc2N1C(=O)OCC1c2ccccc2-c2ccccc21` (stereo not shown) [Example 19, 9H-Fluoren-9-ylmethyl-6-[1-(tert-butoxycarbonyl)-5-cyano-1H-pyrrol-2-yl]-2,4,4-trimethyl-2H-3,1-benzoxazine-1(4H)-carboxylate], which melting point is on record?
**A.** The melting point was 135 to 136 °C.

**Q.** Which melting point does the source give for `CC1(C)CC(=O)Nc2ccc(-c3cc(F)cc(C#N)c3)cc21` [Example 41, 3-(4,4-Dimethyl-2-oxo-1,2,3,4-tetrahydroquinolin-6-yl)-5-fluorobenzonitrile] here?
**A.** The melting point was 249 to 250 °C.

**Q.** For `CC1Nc2ccc(-c3csc(C#N)c3)cc2C(C)(C)O1` (stereo not shown) [Example 15, 4-(2,4,4-Trimethyl-1,4-dihydro-2H-3,1-benzoxazin-6-yl)thiophene-2-carbonitrile], which melting point is on record?
**A.** The melting point was 175 to 176 °C.

**Q.** Which melting point does the source give for `CC1OC(C)(C)Nc2ccc(-c3cccc([N+](=O)[O-])c3)cc21` (stereo not shown) [Compound 3, 6-(3-Nitro-phenyl)-2,2,4,-trimethyl-1,4dihydro-2H-benzo[d][1,3]oxazine] here?
**A.** Its melting point is 188 to 189 °C.

**Q.** Which melting point does the source give for `CC1Nc2ccc(-c3cccc(F)c3)cc2C(C)(C)O1` (stereo not shown) [Example 27, 6-(3-Fluorophenyl)-2,4,4-trimethyl-1,4-dihydro-2H-3,1-benzoxazine] here?
**A.** The melting point was 139 to 140 °C.

**Q.** With `Cc1cc(C#N)sc1-c1ccc2c(c1)C(C)(C)OC(C(F)(F)F)N2` (stereo not shown) [Example 38, 5-[4,4-Dimethyl-2-(trifluoromethyl)-1,4-dihydro-2H-3,1-benzoxazin-6yl]-4-methylthiophene-2-carbonitrile] as the molecule, how does the melting point read?
**A.** Its melting point is 97 to 98 °C.

**Q.** Which melting point does the source give for `CC1Nc2ccc(-c3coc(C#N)c3)cc2C(C)(C)O1` (stereo not shown) [Example 31, 4-(2,4,4-Trimethyl-1,4-dihydro-2H-3,1-benzoxazin-6-yl)-2-furonitrile] here?
**A.** Its melting point is 116 to 118 °C.

**Q.** For `C[C@@H]1Nc2ccc(-c3cc(F)cc(C#N)c3)cc2[C@](C)(c2ccccc2)O1` [Example 17, 3-[(2R,4S)-2,4-Dimethyl-4-phenyl-1,4-dihydro-2H-3,1-benzoxazin-6-yl]-5-fluorobenzonitrile], which melting point is on record?
**A.** Its melting point is 128 to 129 °C.
